# According to the supplement of paper PMC11368000:
# Tests used:
# Conditions in all cases: exposure time: 90 min
# 1565 = donor line of iPSC-derived cardiomyocytes; test: POD (EC05) for decrease in beat frequency (negative chronotrope) vs vehicle; higher = less potent (higher point of departure)
# Experimental: (§1)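 Human iPSC-derived cardiomyocytes from 16 donors were exposed for 90 min at 37 °C to each PFAS at 0.1, 1, 10 and 100 µM in 0.5% DMSO, 384-well plates. Kinetic Ca2+ flux (FLIPR) and Hoechst nuclei counts were normalised to vehicle wells and fitted with a hierarchical Bayesian Hill model to give donor-specific PODs: EC05 for beat-rate increase or decrease and for decay-to-rise ratio increase (QT proxy), EC95 for peak-frequency loss (asystole), EC10 for total cell number loss. 0.03 µM is the lower bound.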
# 1434 = donor line of iPSC-derived cardiomyocytes; test: as above
# Experimental: as §1
# 20032 = donor line of iPSC-derived cardiomyocytes; test: as above
# Experimental: as §1
# 1516 = donor line of iPSC-derived cardiomyocytes; test: as above
# Experimental: as §1
# 11235 [1] = donor line of iPSC-derived cardiomyocytes; test: as above
# Experimental: as §1
# 20084 [2] = donor line of iPSC-derived cardiomyocytes; test: as above
# Experimental: as §1
# 1083 = donor line of iPSC-derived cardiomyocytes; test: as above
# Experimental: as §1
# 30145 = donor line of iPSC-derived cardiomyocytes; test: as above
# Experimental: as §1
# 1531 = donor line of iPSC-derived cardiomyocytes; test: as above
# Experimental: as §1
# 1368 [3] = donor line of iPSC-derived cardiomyocytes; test: as above
# Experimental: as §1
# 1309 = donor line of iPSC-derived cardiomyocytes; test: as above
# Experimental: as §1
# 1535 [4] = donor line of iPSC-derived cardiomyocytes; test: as above
# Experimental: as §1
# 1518 = donor line of iPSC-derived cardiomyocytes; test: as above
# Experimental: as §1
# 1392 = donor line of iPSC-derived cardiomyocytes; test: as above
# Experimental: as §1
# 1118 = donor line of iPSC-derived cardiomyocytes; test: as above
# Experimental: as §1
# 30171 = donor line of iPSC-derived cardiomyocytes; test: as above
# Experimental: as §1
# 11235 [5] = test: POD (EC10) for decrease in total cell number (cytotoxicity) vs vehicle; higher = less potent (higher point of departure)
# Experimental: as §1
# 20084 [6] = test: as above
# Experimental: as §1
# 1368 [7] = test: as above
# Experimental: as §1
# 1535 [8] = test: as above
# Experimental: as §1
Structure (SMILES),POD vs vehicle 1565 [µM],POD vs vehicle 1434 [µM],POD vs vehicle 20032 [µM],POD vs vehicle 1516 [µM],POD vs vehicle 11235 [1] [µM],POD vs vehicle 20084 [2] [µM],POD vs vehicle 1083 [µM],POD vs vehicle 30145 [µM],POD vs vehicle 1531 [µM],POD vs vehicle 1368 [3] [µM],POD vs vehicle 1309 [µM],POD vs vehicle 1535 [4] [µM],POD vs vehicle 1518 [µM],POD vs vehicle 1392 [µM],POD vs vehicle 1118 [µM],POD vs vehicle 30171 [µM],POD vs vehicle 11235 [5] [µM],POD vs vehicle 20084 [6] [µM],POD vs vehicle 1368 [7] [µM],POD vs vehicle 1535 [8] [µM]
OCC(F)(F)C(F)(F)C(F)(F)CO [Hexafluoroamylene_glycol],> 100,> 100,> 100,> 100,> 100,> 100,> 100,> 100,> 100,> 100,> 100,> 100,> 100,> 100,> 100,> 100,> 100,> 100,> 100,> 100
COC(=O)C(F)(F)C(F)(F)OC(F)(C(F)(F)F)C(F)(F)OC(F)=C(F)F (stereo not given) [Methyl_perfluoro(3-(1-ethenyloxypropan-2-yloxy)propanoate)],> 100,> 100,> 100,> 100,> 100,> 100,> 100,> 100,> 100,> 100,> 100,> 100,> 100,> 100,> 100,> 100,> 100,> 100,> 100,> 100
NC(=O)C(F)(F)C(F)(F)C(F)(F)C(F)(F)F [Nonafluoropentanamide],> 100,> 100,> 100,> 100,> 100,> 100,> 100,> 100,> 100,> 100,> 100,> 100,> 100,> 100,17.3,> 100,> 100,> 100,> 100,> 100
NC(=O)C(F)(F)C(F)(F)C(F)(F)C(F)(F)C(N)=O [Octafluoroadipamide],> 100,> 100,> 100,> 100,> 100,> 100,> 100,> 100,> 100,> 100,> 100,> 100,> 100,> 100,> 100,> 100,> 100,> 100,> 100,> 100
O=C(O)C(F)(F)C(F)(F)C(F)(F)C(F)(F)C(=O)O [Octafluoroadipic_acid],> 100,> 100,> 100,> 100,> 100,> 100,> 100,> 100,> 100,> 100,> 100,> 100,> 100,> 100,> 100,> 100,> 100,> 100,> 100,> 100
O=C(O)C(F)(F)C(F)(F)C(F)(F)OC(F)(F)F [Perfluoro(4-methoxybutanoic)_acid],> 100,> 100,> 100,> 100,> 100,> 100,> 100,> 100,> 100,> 100,> 100,> 100,> 100,> 100,> 100,> 100,> 100,> 100,> 100,> 100
"O=C(O)C(F)(F)OC(F)(F)C(F)(F)OC(F)(F)C(F)(F)OC(F)(F)C(F)(F)C(F)(F)C(F)(F)F [Perfluoro-3,6,9-trioxatridecanoic_acid]",> 100,22.8,42,22.2,23.1,77.9,21.8,> 100,3.38,> 100,> 100,79.4,> 100,> 100,18.3,20.7,> 100,> 100,> 100,> 100
"O=C(O)C(F)(F)OC(F)(F)C(F)(F)OC(F)(F)F [Perfluoro-3,6-dioxaheptanoic_acid]",> 100,> 100,> 100,> 100,> 100,> 100,> 100,> 100,> 100,> 100,> 100,> 100,> 100,> 100,> 100,> 100,> 100,> 100,> 100,> 100
"O=C(O)C(F)(F)OC(F)(F)C(F)(F)OC(F)(F)C(=O)O [Perfluoro-3,6-dioxaoctane-1,8-dioic_acid]",> 100,> 100,> 100,> 100,> 100,> 100,> 100,> 100,> 100,> 100,> 100,> 100,> 100,> 100,> 100,> 100,> 100,> 100,> 100,> 100
O=C(O)C(F)(F)C(F)(F)OC(F)(F)F [Perfluoro-3-methoxypropanoic_acid],> 100,> 100,> 100,> 100,> 100,> 100,> 100,> 100,> 100,> 100,> 100,> 100,> 100,> 100,> 100,> 100,> 100,> 100,> 100,> 100
O=C(O)C(F)(F)C(F)(F)C(F)(F)OC(F)(C(F)(F)F)C(F)(F)F [Perfluoro-4-isopropoxybutanoic_acid],> 100,> 100,> 100,> 100,> 100,> 100,> 100,> 100,> 100,> 100,> 100,> 100,> 100,> 100,> 100,> 100,> 100,> 100,> 100,> 100
O=S(=O)(O)C(F)(F)C(F)(F)C(F)(F)C(F)(F)F [Perfluorobutanesulfonic_acid],> 100,> 100,> 100,29.7,41.4,> 100,> 100,> 100,> 100,> 100,> 100,> 100,> 100,> 100,> 100,73.6,> 100,> 100,> 100,> 100
O=C(O)C(F)(F)C(F)(F)C(F)(F)F [Perfluorobutanoic_acid],> 100,> 100,> 100,> 100,> 100,> 100,> 100,> 100,> 100,> 100,> 100,> 100,> 100,> 100,> 100,> 100,> 100,> 100,> 100,> 100
O=C(O)C(F)(F)C(F)(F)C(F)(F)C(F)(F)C(F)(F)C(F)(F)C(F)(F)C(F)(F)C(F)(F)F [Perfluorodecanoic_acid],> 100,12.4,> 100,14.9,15.5,77.6,18.3,> 100,64.4,> 100,56.2,66.5,> 100,27.5,2.31,7.83,> 100,> 100,> 100,> 100
O=C(O)C(F)(F)C(F)(F)C(F)(F)C(F)(F)C(F)(F)C(F)(F)F [Perfluoroheptanoic_acid],> 100,> 100,> 100,68.1,20.6,> 100,> 100,> 100,78.7,> 100,> 100,> 100,> 100,> 100,39.8,> 100,> 100,56.8,> 100,> 100
NS(=O)(=O)C(F)(F)C(F)(F)C(F)(F)C(F)(F)C(F)(F)C(F)(F)F [Perfluorohexanesulfonamide],92,9.37,13.4,14.3,0.693,54.4,25.7,34.9,6.44,> 100,14.7,12.6,32.8,91.8,1.33,7.7,> 100,> 100,> 100,> 100
O=S(=O)(O)C(F)(F)C(F)(F)C(F)(F)C(F)(F)C(F)(F)C(F)(F)F [Perfluorohexanesulfonic_acid],81.7,63.6,84.5,17.6,26.5,> 100,> 100,> 100,24.5,> 100,78.1,43.4,> 100,> 100,19.6,46.1,> 100,> 100,> 100,> 100
O=C(O)C(F)(F)C(F)(F)C(F)(F)C(F)(F)C(F)(F)F [Perfluorohexanoic_acid],> 100,> 100,> 100,> 100,> 100,> 100,> 100,> 100,> 100,> 100,> 100,> 100,> 100,> 100,> 100,> 100,> 100,> 100,> 100,> 100
O=C(O)C(F)(F)C(F)(F)C(F)(F)C(F)(F)C(F)(F)C(F)(F)C(F)(F)C(F)(F)F [Perfluorononanoic_acid],> 100,20,27.9,20.4,2.8,> 100,> 100,> 100,40.2,> 100,35.2,31.8,51.1,> 100,11,7.86,> 100,> 100,> 100,> 100
